{"source": "patent US20180125898A1", "about": "“MARINE LECITHIN PREPARATIONS WITH ENHANCED OXIDATION RESISTANCE” (AKER BIOMARINE ANTARCTIC AS, priority 2014, published 2018)", "assay": "Gastric model: incubation in simulated gastric fluid (SGF), LOOH (FOX assay) and MDA, oxidation resistance score", "type": "physicochemical", "conditions": "conventional krill oil with high TMAO, three concentrations of Astaxanthin (increased more than 10 fold), 180 minutes", "protocol": "Hydroperoxide level was tested by FOX analysis. Measurements were conducted at 562 nm, the absorbance of the Ferric-Xylenol Orange Complex. (Gay 1999).\nMalondialdehyde (MDA) level was tested by modified TBARS test. The thiobarbituric acid-MDA adduct was quantified by HPLC (Fenaille 2001) or spectrophotometer.\nMarine lecithin preparations according to the invention and conventional marine lecithins were incubated while shaken in simulated gastric fluid (SGF) which contains 2 mg/ml NaCl, 3.2 mg/ml HCl 37%, and 7 mg/ml Pepsine and with 200 μM Ascorbic acid and 50 μM FeCl3 as oxidation catalysts, at 37° C. for 180 min. The final concentration of the oils was 10 mg/ml. Peroxidation markers hydroperoxide (LOOH, by Ferric-Xylenol Orange Complex—FOX assay) and malondialdehyde (MDA-TBA2 HPLC analysis) were analyzed following 180 minutes of incubation in the gastric model.\nIn order to rank the oils according to their resistance to oxidation in gastric model, a score scale was developed. […]\nConventional krill oil, containing high concentration of TMAO, was enriched with three concentrations of Astaxanthin and incubated in simulated gastric fluid (SGF) as described in Example 3. Hydroperoxide as peroxidation marker (LOOH, by Ferric-Xylenol Orange Complex—FOX assay—see method above) was analyzed following 180 minutes. […]", "data": [{"molecule": "CC1=C(/C=C/C(C)=C/C=C/C(C)=C/C=C/C=C(C)/C=C/C=C(C)/C=C/C2=C(C)C(=O)[C@@H](O)CC2(C)C)C(C)(C)C[C@H](O)C1=O", "note": "[Astaxanthin]", "values": [{"measurement": "change in LOOH levels by Astaxanthin enrichment", "value": "only minimal change in LOOH levels"}]}]}
